# Laboratory results published in US12371658B2, “Three-dimensional microtissues with integrated mechanical loading” (Carnegie Mellon University, priority 2017, dated 2025).
# Tested on: cardiac MIFIs (HUES9-CMs with 10% FBs)
# Experiment: side-on contractility assay of cardiac MIFIs with drug dosing (twitch force, beat frequency)
# Format: cell-based, human
# Settings: for beat frequency relative to initial beat frequency: normalized to native beat frequency
# Protocol: MIFIs were removed from wells using forceps and were transferred to a 35 mm petri dish filled with 37° C. Tyrode's solution (1.192 g HEPES, 0.203 g MgCl2, 0.403 g KCl, 7.889 g NaCl, 0.04 g NaH2PO4, 0.901 g C6H12O6, and 0.265 g CaCl2) per liter of distilled water, pH 7.4). MIFIs were anchored by placing the wide base of the strip into a slit in a PDMS block glued to the bottom of the stimulation dish. The Tyrode's bath was maintained between 30° and 37° C. using a heated stage regulated by an in house Lab VIEW program. Videos of samples were taken using a NikonTM […] DSLR camera mounted on a NikonTM SMZ1500 stereomicroscope. Samples were paced from 2-10 Hz using parallel platinum electrodes placed 2 cm apart and immersed in Tyrode's solution. Samples were stimulated with 40V using a 10 ms square pulse wave. Shorter pulse durations can also be used (e.g., 2 ms, 4 ms, 6 ms, etc.). Carbachol and isoprenaline were mixed to stock concentrations of 5 mM in 1× Tyrode's solution. […] Caffeine was dissolved directly in Tyrode's to make a stock solution of 20 mM. […] Finite element modeling of bending PDMS strips was used to create lookup tables for strips ranging in thickness from 125 to 154 μm. FIGS. 9A-D show modeling data 930 for strips 900, 910, and 920. The elastic strip (e.g., strip 112) was modeled as 3D deformable extruded solid, with extruded thickness varying between 125 and 154 μm. The elastic strip was considered as linearly elastic, isotropic and incompressible material, with Young's modulus equal to 3.09 MPa according to elastic modulus measurements. The section of the elastic strip was considered as solid homogeneous. The force-driven bending simulation was designed to mimic the experimental procedure. One static general analysis step was used where the elastic strip was deformed by application of equal contractile force in three parallel axial connectors placed in the regions where the tissue was attached during the experiment, so that the total force would equal the sum of the contractile force of the three connectors. […] Additional boundary conditions were imposed based on geometrical symmetry. […] Finally, the finite element mesh was composed of 20-node quadratic, hybrid, reduced integration brick elements. From this model, the change in tissue length could then be used to calculate the force necessary to bend the strips to these conformations. Length changes of contracting MIFIs were tracked and resulting length data was used to calculate the corresponding force based on tissue length and strip parameters (e.g., thickness, width, length, elastic modulus, and shape). […] By tracking the change in tissue length of beating MIFIs, we calculated force generated by these tissues using force lookup tables. MIFIs were removed from wells, one side of the strip was placed in a slit in a PDMS block to anchor the MIFI for side-on viewing, and the construct was submerged in Tyrode's and placed between two parallel platinum electrodes for later stimulation by assay device 1300.
# [1] = Day 14, 10% FB MIFI, isoprenaline at 500 nM and 5 μM
# [2] = Day 14, 10% FB MIFI, carbachol dosing, concentration not given
smiles,measurement,setting,value
CNC[C@H](O)c1ccc(O)c(O)c1 [epinephrine],twitch force as percent of initial twitch force,"5 μM epinephrine, electrical pacing 2 Hz",85%
same,twitch force as percent of initial twitch force,"5 μM epinephrine, spontaneous beating",66%
same,twitch force as percent of initial twitch force,"50 μM epinephrine, electrical pacing 2 Hz",80%
same,twitch force as percent of initial twitch force,"50 μM epinephrine, spontaneous beating",61%
same,twitch force,"Day 14, 10% FB MIFI, 500 nM epinephrine, spontaneous beating",5.49 μN
same,effect on twitch force,"Day 14, 10% FB MIFI, epinephrine 500 nM to 50 μM",dose-dependent decrease in twitch force
same,beat frequency relative to initial BPM,"epinephrine, first of two values, dose not given",1.42 ×
Cn1c(=O)c2c(ncn2C)n(C)c1=O [caffeine],beat frequency relative to initial BPM,5 mM caffeine,1.59 ×
same,effect on twitch force,"Day 14, 10% FB MIFI, 55 mM caffeine",minimal impact on the twitch force
same,effect on spontaneous beat frequency,"Day 14, 10% FB MIFI, 55 mM caffeine, after isoprenaline wash-out",increased the spontaneous beat frequency
CC(C)NCC(O)c1ccc(O)c(O)c1 (centres unmarked) [isoprenaline],beat frequency relative to initial beat frequency,500 nM isoprenaline,1.27 ×
same,beat frequency relative to initial beat frequency,50 μM isoprenaline,1.48 ×
same,twitch force as percent of initial twitch force,"Day 14, 10% FB MIFI, 500 nM isoprenaline",~80%
same,twitch force,"Day 14, 10% FB MIFI, 500 nM isoprenaline, 2 Hz paced",2.81 μN
same,twitch force,"Day 14, 10% FB MIFI, 500 nM isoprenaline, spontaneous beating",2.85 μN
same,twitch force,"Day 14, 10% FB MIFI, beating spontaneously in 5 M isoprenaline",~4.0 μN
same,twitch force as percent of initial twitch strength,"Day 14, 10% FB MIFI, isoprenaline",~50%
same,effect on native beat frequency,[1],intended stimulatory effect
same,effect on twitch force,[1],did not noticeably affect the twitch force
same,ability to electrically pace the constructs,"Day 14, 10% FB MIFI, isoprenaline at 500 nM and 5 μM, 2 Hz pacing",did not interrupt the ability to electrically pace the constructs
same,twitch force,"Day 14, 10% FB MIFI, isoprenaline, 2 Hz paced",2.15 μN
same,twitch force,"Day 14, 10% FB MIFI, isoprenaline, spontaneous beating",1.78 μN
C[N+](C)(C)CCOC(N)=O [carbachol],effect on spontaneous beat frequency,[2],reduced the spontaneous beat frequency
same,effect on twitch force,[2],surprisingly little impact on twitch force
same,twitch force relative to twitch force of synchronous constructs,"Day 14 arrhythmic construct, carbachol 500 nM, 5 μM, 50 µM, spontaneous beating",~30%
same,effect on spontaneous beat frequency of arrhythmic construct,"Day 14 arrhythmic construct, increasing carbachol doses 500 nM, 5 μM, 50 µM",improvement in the spontaneous beat frequency
same,fold stronger twitch contraction,"arrhythmic construct, 2 Hz pacing coupled with 5 μM carbachol",2.5 ×
same,fold stronger twitch contraction,"arrhythmic construct, 2 Hz pacing coupled with 50 μM carbachol",2.8 ×
same,combinatorial effect of drug treatment with electric pacing on twitch force,"arrhythmic construct, carbachol 5 μM and 50 μM, 2 Hz pacing",significantly higher twitch forces
